# Data taken from patent publication US6756206B2, “Adsorption and removal of endotoxin from physiological fluids using cationic helix peptides” (Commonwealth Biotechnologies, Inc., priority 1998, dated 2004).
# Read-outs that look alike come from different tables or passages of the source. No end group written: not given here.
# B1: rHBP: recombinant heparin binding protein; formerly known as cationic antimicrobial protein or bactericidal/permeability increasing factor (protein, UniProt P20160 27-248, looked up)
# Azurocidin: IVGGRKARPRQFPFLASIQNQGRHFCGGALIHARFVMTAASCFQSQNPGVSTVVLGAYDLRRRERQSRQTFSISSMSENGYDPQQNLNDLMLLQLDREANLTSSVTILPLPLQNATVEAGTRCQVAGWGSQRSGGRLSRFPRFVNVTVTPEDQCRPNNVCTGVLTRRGGICNGDGGTPLVCEGLAHGVASFSLGPCGRGPDFFTRVALFRDWIDGVLNNPGP
# How the values were obtained:
# [1] = Neutralization of endotoxin purposely added to plasma or buffer, kinetic chromogenic Limulus amebocyte lysate endotoxin assay; assay type: biochemical; conditions: for neutralization (binding) of endotoxin, in words: endotoxin added to plasma or aqueous samples; for Percent binding of Endotoxin: plasma, endotoxin 10 ng/mL
# Procedure: The presence of endotoxin may routinely be measured using, for example, a kinetic chromogenic method. The assay involves a complete set of enzyme reactions which are described in detail in the following publications, each of which is hereby incorporated by reference.
# In the course of the endotoxin assay, a calibration curve is prepared which is a plot of logarithm of the time of the kinetic endpoint of a chromogenic reaction versus the logarithm of known concentrations of endotoxin.
# Thus, if endotoxin is added to aqueous buffer solutions or to plasma the amount of endotoxin present can be assayed by reference to the calibration curve. Similarly, if plasma, plasma fractions, patient samples or any test solution contains an endogenous level of endotoxin, the level can also be determined by reference to the calibration curve.
# Endotoxin was purposely added to plasma to a final concentration of 10 ng/mL and increasing concentrations of the compounds Arg Helix #2 (a monomeric cationic helix peptide), Bis Arg Helix #2 (which contains 2 copies of Arg Helix #2), Tris Arg Helix #3 (which contains 3 copies of Arg Helix #3), Tetra Arg Helix #3 (4 copies of Arg Helix #3) or Tris Arg Helix #3 (constrained) (3 copies of Arg Helix #3 constrained by design to present a “binding groove” within the molecule) were added to these same samples (Table 1).
# [2] = cited from earlier work
Molecule,"neutralization (binding) of endotoxin, in words [1]",Percent binding of Endotoxin ([1]; peptide concentration 0.01 mg/mL) [%],Percent binding of Endotoxin ([1]; peptide concentration 0.1 mg/mL) [%],Percent binding of Endotoxin ([1]; peptide concentration 0.5 mg/mL) [%],Percent binding of Endotoxin ([1]; peptide concentration 1.0 mg/mL) [%],"Survival ([2]; animals treated with cefoxitin and rHBP, compared to controls)",Survival ([2]; mice pretreated well in advance),"Survival ([2]; treated at the time of ligation and puncture, versus control group)"
"Bis Arg Helix #2: contains 2 copies of Arg Helix #2; SEQ ID NOS.:2 and 3, FIG. 1A (chain 1 ARAARRAARAAARRARAEA; chain 2 AEARARRAAARAARRAARA; also: two copies linked, linkage not given here)",very little neutralization (binding) activity,0.00,24.7,51.2,63.5,–,–,–
protamine [reference compound],ineffective in neutralizing endotoxin,–,–,–,–,–,–,–
B1,–,–,–,–,–,increased significantly,increased,not significantly different
